Laboratory results as given in publication PMC9143880, “Improving Antimicrobial Activity and Physico-Chemical Properties by Isosteric Replacement of 2-Aminothiazole with 2-Aminooxazole” (Pharmaceuticals, 2022).
Converted amounts (≈) assume the structure as drawn. Where two headings read alike, the source gives them in different places.

Experiments:
[1] = RP-UHPLC lipophilicity parameter log k’w; assay type: physicochemical; conditions: for log k’w: RP-UHPLC, acetonitrile/water, log k extrapolated to 0% acetonitrile; for logkw: experimental lipophilicity parameter
In short: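 log k’w from isocratic RP-UHPLC with an acetonitrile/water mobile phase, using 40, 45 and 50% acetonitrile for subtype I and 20, 30 and 40% for subtype II. A single run was made at each mobile-phase composition.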

HepG2 cells = experiment: HepG2 cytotoxicity screening (CellTiter 96); assay type: cell-based, human; conditions: for IC50: Homo sapiens, HepG2, 24 h, 24 h incubation, CellTiter 96, * above highest tested concentration, ** limited by insolubility in medium; for SI: SI = IC50 (µM) HepG2 / MICH37Ra (µM)
[2] = test system: Mycobacterium tuberculosis H37Ra ITM-M006710 (ATCC 9431); experiment: Antimycobacterial MIC, microdilution broth / Alamar Blue (resazurin); assay type: cell-based; conditions: for MIC: Mycobacterium tuberculosis
[3] = test system: M. smegmatis DSM 43465 (ATCC 607); experiment: Antimycobacterial MIC, microdilution broth / resazurin; assay type: cell-based; conditions: Mycolicibacterium smegmatis; resazurin after 48 h; read-out: MIC M. smegmatis
[4] = test system: M. aurum DSM 43999 (ATCC 23366); experiment: as above; assay type: cell-based; conditions: Mycolicibacterium aurum; resazurin after 72 h; read-out: MIC M. aurum
[5] = test system: M. avium DSM 44156 (ATCC 25291); experiment: as above; assay type: cell-based, Mycobacterium avium; conditions: Mycobacterium avium; resazurin after 96 h; read-out: MIC M. avium
[6] = test system: M. kansasii DSM 44162 (ATCC 12478); experiment: as above; assay type: cell-based; conditions: Mycobacterium kansasii, read-out: MIC M. kansasii
[7] = test system: Staphylococcus aureus subsp. aureus CCM 4223 (ATCC 29213); experiment: Antibacterial microdilution broth (EUCAST); assay type: cell-based; conditions: Staphylococcus aureus; 24h incubation; read-out: MIC SA
[8] = test system: Staphylococcus aureus subsp. aureus (MRSA) CCM 4750 (ATCC 43300); experiment: Antibacterial microdilution broth (EUCAST); assay type: cell-based; conditions: Staphylococcus aureus; 24h incubation; read-out: MIC MRSA
[9] = test system: Staphylococcus epidermidis CCM 4418 (ATCC 12228); experiment: Antibacterial microdilution broth (EUCAST); assay type: cell-based; conditions: Staphylococcus epidermidis; 24h incubation; read-out: MIC SE
[10] = test system: Enterococcus faecalis CCM 4224 (ATCC 29212); experiment: Antibacterial microdilution broth (EUCAST); assay type: cell-based; conditions: Enterococcus faecalis; 24h incubation; read-out: MIC EF
[11] = test system: Escherichia coli CCM 3954 (ATCC 25922); experiment: Antibacterial microdilution broth (EUCAST); assay type: cell-based; conditions: Escherichia coli; 24h incubation; read-out: MIC EC
[12] = test system: Acinetobacter baumannii DSM 30007 (ATCC 19606); experiment: Antibacterial microdilution broth (EUCAST); assay type: cell-based; conditions: Acinetobacter baumannii; 24h incubation; read-out: MIC AB
[13] = test system: Pseudomonas aeruginosa CCM 3955 (ATCC 27853); experiment: Antibacterial microdilution broth (EUCAST); assay type: cell-based; conditions: Pseudomonas aeruginosa; 72h incubation; read-out: MIC PA
[14] = test system: Candida albicans CCM 8320 (ATCC 24433); experiment: Antifungal microdilution broth (EUCAST); conditions: Candida albicans, 24 h, read-out: MIC CA
[15] = test system: Candida krusei CCM 8271 (ATCC 6258); experiment: Antifungal microdilution broth (EUCAST); conditions: Pichia kudriavzevii, 24 h, read-out: MIC CK
[16] = test system: Candida parapsilosis CCM 8260 (ATCC 22019); experiment: Antifungal microdilution broth (EUCAST); conditions: Lodderomyces parapsilosis, 24 h, read-out: MIC CP
[17] = test system: Candida tropicalis CCM 8264 (ATCC 750); experiment: Antifungal microdilution broth (EUCAST); conditions: Candida tropicalis, 24 h, read-out: MIC CT
[18] = test system: Aspergillus fumigatus ATCC 204305; experiment: Antifungal microdilution broth (EUCAST); conditions: Aspergillus fumigatus, ATCC204305, 24 h, read-out: MIC AF
[19] = test system: Aspergillus flavus CCM 8363; experiment: Antifungal microdilution broth (EUCAST); conditions: Aspergillus flavus, CCM8363, 24 h, read-out: MIC AFla
[20] = test system: Lichtheimia corymbifera CCM 8077; experiment: Antifungal microdilution broth (EUCAST); conditions: Lichtheimia corymbifera, CCM8077, 24 h, read-out: MIC LC
[21] = test system: Trichophyton interdigitale CCM 8377 (ATCC 9533); experiment: Antifungal microdilution broth (EUCAST); conditions: Trichophyton interdigitale, 72 h, read-out: MIC TI
[22] = Middlebrook 7H9, resazurin after 120 h
[23] = 120 h, Middlebrook 7H9, resazurin after 120 h, read-out: Mtb H37Ra MIC
[24] = recalculated from µg/mL, read-out: MICH37Ra

Structure (SMILES) | log k’w [1] | logkw [1] | IC50 (HepG2 cells) | MIC [2, 23] | MIC [3] | MIC [4] | MIC [5] | MIC [7] | MIC [8] | MIC [9] | MIC [10] | MIC [11] | MIC [12] | MIC [13] | melting point | MIC [14] | MIC [15] | MIC [16] | MIC [17] | MIC [18] | further results
O=C(Nc1nc(-c2ccccc2)cs1)c1ccccn1 [Compound 11a] | 3.102 | 3.102 | > 100 µM | 3.91 to 7.81 µg/mL | ≥ 500 µg/mL | ≥ 500 µg/mL | ≥ 500 µg/mL | > 500 µM | > 500 µM | > 500 µM | > 500 µM | > 500 µM | > 500 µM | > 500 µM | 128 to 130 °C | > 500 µM | > 500 µM | > 500 µM | > 500 µM | > 500 µM | SI (HepG2 cells): >7.2; Mtb H37Ra MIC [2, 22]: 3.91 µg/mL; MIC [2, 24]: 13.9 µM; MIC ([6]; 96 h): 3.91 µg/mL (≈ 13.9 µM); MIC [19]: > 500 µM; MIC [20]: > 500 µM; MIC [21]: > 500 µM
O=C(Nc1nc(-c2ccccc2)co1)c1ccccn1 [Compound 11b] | 2.038 | 2.038 | 883 µM | 3.91 to 7.81 µg/mL | 125 µg/mL (≈ 471 µM) | 31.2 µg/mL (≈ 118 µM) | 31.2 µg/mL (≈ 118 µM) | 500 µM (≈ 133 µg/mL) | 500 µM (≈ 133 µg/mL) | 125 µM (≈ 33.2 µg/mL) | > 500 µM | > 500 µM | > 500 µM | > 500 µM | 107 to 109 °C | 500 µM (≈ 133 µg/mL) | 500 µM (≈ 133 µg/mL) | 500 µM (≈ 133 µg/mL) | 500 µM (≈ 133 µg/mL) | 500 µM (≈ 133 µg/mL) | SI (HepG2 cells): >67.8; Mtb H37Ra MIC [2, 22]: 3.91 µg/mL; MIC ([2]; read-out: MICH37Ra, recalculated from µg/mL): 14.7 µM; MIC ([6]; 96 h): 3.91 µg/mL (≈ 14.7 µM); MIC [19]: 500 µM (≈ 133 µg/mL); MIC [20]: 125 µM (≈ 33.2 µg/mL); MIC [21]: 62.5 µM (≈ 16.6 µg/mL)
Cc1cc(C(=O)Nc2ncco2)ccn1 [Compound 5b] | 0.714 | 0.714 | > 1000 µM | 3.91 µg/mL | 250 µg/mL (≈ 1230 µM) | 15.6 µg/mL (≈ 76.9 µM) | 62.5 µg/mL (≈ 308 µM) | > 500 µM | > 500 µM | > 500 µM | > 500 µM | > 500 µM | > 500 µM | > 500 µM | 149 to 152 °C | > 125 µM | > 125 µM | > 125 µM | > 125 µM | > 125 µM | SI (HepG2 cells): >52.0; MIC [2, 24]: 19.2 µM; MIC ([6]; resazurin after 96 h): 31.2 µg/mL (≈ 154 µM); MIC [19]: > 125 µM; MIC [20]: > 125 µM; MIC [21]: > 125 µM
O=C(Nc1nc(-c2ccccc2)co1)c1cnccn1 [Compound 17b] | 1.306 | 1.306 | > 1000 µM | 15.6 µg/mL | ≥ 500 µg/mL | 125 µg/mL (≈ 469 µM) | ≥ 500 µg/mL | > 500 µM | > 500 µM | > 500 µM | > 500 µM | > 500 µM | > 500 µM | > 500 µM | 140 to 142 °C | > 500 µM | > 500 µM | > 500 µM | > 500 µM | > 500 µM | MIC ([6]; 96 h): 15.6 µg/mL (≈ 58.7 µM); MIC [19]: > 500 µM; MIC [20]: > 500 µM; MIC [21]: > 500 µM
Cc1cncc(C(=O)Nc2ncco2)c1 [Compound 4b] | 0.888 | 0.8881 | > 1000 µM | 7.81 µg/mL | ≥ 500 µg/mL | 31.2 µg/mL (≈ 154 µM) | 125 µg/mL (≈ 615 µM) | 500 µM (≈ 102 µg/mL) | 500 µM (≈ 102 µg/mL) | 500 µM (≈ 102 µg/mL) | > 500 µM | > 500 µM | 500 µM (≈ 102 µg/mL) | > 500 µM | 171 to 175 °C | > 500 µM | > 500 µM | > 500 µM | > 500 µM | > 500 µM | SI (HepG2 cells): >26.0; MIC [2, 24]: 38.4 µM; MIC ([6]; resazurin after 96 h): 62.5 µg/mL (≈ 308 µM); MIC [19]: > 500 µM; MIC [20]: > 500 µM; MIC [21]: > 500 µM
Cc1cc(C(=O)Nc2nccs2)cc(Cl)n1 [Compound 7a] | 2.319 | 2.319 | > 250 µM | ≥ 500 µg/mL | ≥ 500 µg/mL | ≥ 500 µg/mL | ≥ 500 µg/mL | > 500 µM | > 500 µM | > 500 µM | > 500 µM | > 500 µM | > 500 µM | > 500 µM | 198.6 °C | > 125 µM | > 125 µM | > 125 µM | > 125 µM | > 125 µM | MIC ([6]; resazurin after 96 h): ≥ 500 µg/mL; MIC [19]: > 125 µM; MIC [20]: > 125 µM; MIC [21]: > 125 µM
